The source of these data is patent US20020043656A1, “GREEN ORGANIC LUMINOPHOR” (priority 2000, published 2002).

Series [1] can be described thus: Absolute fluorescence quantum yield, equal absorption technique. Type of series: physicochemical. As to the method:
The absolute quantum yield was determined using the equal absorption technique (A. S. Cherkasov, Z. Fiz. Khim. 29, 2209, […]).

Series [2] in a line: Electron absorption spectra / extinction. It counts as physicochemical. The text has this:
The compound structure was confirmed by electron absorption spectra and IR ones.

The nature of series [3]: Fluorescence (luminescence) spectra. It counts as physicochemical. Conditions: for Luminescence in toluene λmax: 365 nm excitation. As to the method:
Fluorescence spectra in toluene were measured and absolute fluorescence quantum yields in crystals were determined.
The fluorescence spectra were measured using a setup including a 3MR-3 mirror monochromator, a FEU-1 8 photomultiplier, an M-95 microampermeter. A SVDT-95 lamp was used as the excitation source, the 365 nm exciting line was singled out of its spectrum.

For series [4] the following is noted: various reagents; prior art; cited from earlier work.
For series [5] the following is noted: cited from earlier work; for Luminescence in toluene λmax: prior art analogs.
The conditions of series [6]: prior art; cited from earlier work.
The conditions of series [7]: cited from earlier work; for Luminescence in toluene η (quantum yield): prior art analogs; for quantum yield η: prior art, medium not stated.
For series [8] the following is noted: prior art, cited from earlier work.

Like-named read-outs stand apart in the source and are kept apart here. Bounds are passed on as bounds.

Take “1-phenyl-5-(p-methoxyphenyl)-3-[1,8-naphthoylene-1′,2′-benzimidazol-4-yl]-2-pyrazol”: the “Luminescence in toluene η (quantum yield)” value (“Luminescence in toluene η” below) in series [1] (in toluene solution) is recorded as 0.85. In series [1] (medium not stated), the quantum yield entry was “approximately 0.82+0.05”. In addition, the “quantum yield of photoluminescence η” value in series [1] (solid state (vacuum-deposited film)) is given as 0.78. For the same compound, the “maximum absorption (extinction coefficient)” value in series [2] is listed as ≤ 30,000. Further, in series [2] (in toluene), the “Absorption λ” value stood at 412 nm. The “Luminescence in toluene λmax” value in series [3] was 510 nm; in series [3] (listed as Example 1) it was 495 nm. For the same compound, the λmax.lum in series [3] (medium not stated) was above 510 nm.
With `O=c1c2cccc3cccc(c32)c2nc3ccccc3n12` [Prior art emission range analog, 1,8-naphthoylene-1′,2′-benzimidazol], the chemical stability entry in series [4] was “chemically stable against various reagents”. Also, the “luminescence spectral maximum wavelength” value in series [5] (depending on the luminophor concentration) is given as 490 to 510 nm. Moreover, the “Luminescence in toluene λmax” value in series [5] was 490 nm. For the same compound, the “extinction coefficient in the absorption maximum” value in series [6] is 8000. Also, in series [7], the “Luminescence in toluene η” value was 0.5 and the “quantum yield η” value was above 0.5. Moreover, in series [7] (listed as Lumogen yellow-green), the “Luminescence in toluene η” value is reported as above 0.5. Moreover, in series [8] (organic media), the “solubility in organic media” value is reported as “soluble in organic media”. In addition, the solubility in water result in series [8] (water) is “essentially water-insoluble”.
`COc1cccc2c(-c3ccc(N(C)C)cc3)c3nn(C)cc3nc12` [Prior art structure analog, 2-methyl-5-methoxy-9-(4-dimethylaminophenyl)-2H-pyrazolo[4,3-b]quinoline]: in series [5], the “Luminescence in toluene λmax” value is recorded as 510 nm. The λmax.lum in series [5] (prior art, medium not stated) is 510 nm. Further, in series [7], the “Luminescence in toluene η” value is listed as 0.8 and the “quantum yield η” value was 0.8.
